# From US20100151104A1, “Preservative System For Beverages Based On Combinations Of Trans-Cinnamic Acid, Lauric Arginate, And Dimethyl Dicarbonate” (priority 2008, published 2010)
# Several values for one entry are separate records, joined by “and”; a condition that tells them apart may be missing. Identical values can stand only once.
# What was measured:
# [1] = tested on: Zygosaccharomyces bailii; test: Growth in 10% apple juice beverage with combinations of LAE & cinnamic acid; log (QA/Qa+QB/Qb) calculation; assay type: cell-based
# Text: Trans-cinnamic acid and lauric arginate were combined in the following beverage formulation: [table] […] The analysis of the interaction between lauric arginate and cinnamic acid can be refined through use of a mathematical method developed by Voorspuij and Nass (Arch. Int. pharmacodyn. 59:211 1957) (generally accepted among those practiced in the art.) Herein, the interactions between two active substances can be explored. First the quantity (Qa=Molar Cone) of compound A required for an end point (concentration required to stabilize product for 16 weeks) is established. Similarly, the quantity (Qb =Molar cone) of substance B required to establish the same endpoint is established. Thereafter, mixtures of A & B, in quantities QA & Qs are established that also define endpoints. […] If the sum of the ratios for a mixture of A & Bare=1, then the interaction is considered additive. […] Calculation of log (QA/Qa+QB/Qb) for LAE+trans Cinnamic Acid vs Zygosaccharomyces bailii
# [2] = tested on: yeast and mold; conditions: recommended by inventor & manufacturer of LAE; cited from earlier work
# [3] = tested on: fungal strains; conditions: prior art; incubation no greater than 72 hours; cited from earlier work
# [4] = tested on: Zygosaccharomyces bisporous and Zygosaccharomyces bailii; test: Tolerance of fungal strains to cinnamic acid over 16 weeks incubation; assay type: cell-based
# Experimental: Over a period of incubation of 16 weeks, fungal strains are found to be tolerant to cinnamic acid at concentrations as high as 300 ppm, or even as high as 450 ppm cinnamic acid (pH 3.4). Thus, cinnamic acid, as a stand alone preservative, would need to be present at a concentrations as high as 450 ppm (e.g. between 450-500) in order to be assured that of preservation against spoilage by organisms such as Zygosaccharomyces bisporous and Zygosaccharomyces bailii for a period of at least 16 weeks. […] Beverage product case packaged in a container and which must pass through lengthy channels of distribution before reaching the consumer need be stable for a period as long as 16 weeks.
# [5] = pKa and un-dissociated fraction of cinnamic acid; assay type: physicochemical
# Text: It should be noted that cinnamic acid has a particularly high plc, value (4.42) and at least 45% of the cinnamic acid added to beverage is in the form of the un-dissociated acid.
# [6] = stand alone, end point = concentration required to stabilize product for 16 weeks
smiles,measurement,setting,value
"CCCCCCCCCCCC(=O)N[C@@H](CCCNC(=N)N)C(=O)OCC.Cl [LAE, ethyl-N-lauroyl-L-argniate hydrochloride]",QA/Qa + QB/Qb,"[1]; QLAE 76, QCA 0",1.00
same,QLAE/QLAE*,"[1]; QLAE 76, QCA 0",1.00
same,QNaB/QNAB*,"[1]; QLAE 76, QCA 0",0.00
same,log (QA/Qa + QB/Qb),"[1]; QLAE 76, QCA 0",0.0000
same,amount of growth (normalized) to control,"[1]; pH 3.0, LAE 2.5 ppm, Cinnamic Acid 0 ppm",81%
same,amount of growth (normalized) to control,"[1]; pH 3.0, LAE 5 ppm, Cinnamic Acid 0 ppm",88%
same,amount of growth (normalized) to control,"[1]; pH 3.0, LAE 7.5 ppm, Cinnamic Acid 0 ppm",82%
same,amount of growth (normalized) to control,"[1]; pH 3.0, LAE 10 ppm, Cinnamic Acid 0 ppm",79%
same,amount of growth (normalized) to control,"[1]; pH 3.0, LAE 15 ppm, Cinnamic Acid 0 ppm",75%
same,amount of growth (normalized) to control,"[1]; pH 3.5, LAE 2.5 ppm, Cinnamic Acid 0 ppm",95%
same,amount of growth (normalized) to control,"[1]; pH 3.5, LAE 5 ppm, Cinnamic Acid 0 ppm",75%
same,amount of growth (normalized) to control,"[1]; pH 3.5, LAE 7.5 ppm, Cinnamic Acid 0 ppm",75%
same,amount of growth (normalized) to control,"[1]; pH 3.5, LAE 10 ppm, Cinnamic Acid 0 ppm",78%
same,amount of growth (normalized) to control,"[1]; pH 3.5, LAE 15 ppm, Cinnamic Acid 0 ppm",86%
same,amount of growth (normalized) to control,"[1]; pH 4.0, LAE 2.5 ppm, Cinnamic Acid 0 ppm",94%
same,amount of growth (normalized) to control,"[1]; pH 4.0, LAE 5 ppm, Cinnamic Acid 0 ppm",80%
same,amount of growth (normalized) to control,"[1]; pH 4.0, LAE 7.5 ppm, Cinnamic Acid 0 ppm",85%
same,amount of growth (normalized) to control,"[1]; pH 4.0, LAE 10 ppm, Cinnamic Acid 0 ppm",114%
same,amount of growth (normalized) to control,"[1]; pH 4.0, LAE 15 ppm, Cinnamic Acid 0 ppm",124%
same,QLAE* (quantity of LAE alone required for the end point),[1]; [6],QLAE* 76
same,recommended stand alone concentration to stabilize beverages against spoilage,[2],128 ppm
"O=C(O)/C=C/c1ccccc1 [Cinnamic Acid, trans-cinnamic acid]",MIC,[3],125-180 ppm
same,concentration of cinnamic acid to which fungal strains are tolerant,"[4]; incubation of 16 weeks, pH 3.4",300 ppm and 450 ppm
same,stand alone concentration needed for preservation against spoilage for at least 16 weeks,"[4]; stand alone preservative, 16 weeks",450-500 ppm
same,QA/Qa + QB/Qb,"[1]; QLAE 0, QCA 300",1.00
same,QLAE/QLAE*,"[1]; QLAE 0, QCA 300",0.00
same,QNaB/QNAB*,"[1]; QLAE 0, QCA 300",1.00
same,log (QA/Qa + QB/Qb),"[1]; QLAE 0, QCA 300",0.0000
same,amount of growth (normalized) to control,"[1]; pH 3.0, LAE 0 ppm, Cinnamic Acid 10 ppm",89%
same,amount of growth (normalized) to control,"[1]; pH 3.0, LAE 0 ppm, Cinnamic Acid 20 ppm",82%
same,amount of growth (normalized) to control,"[1]; pH 3.0, LAE 0 ppm, Cinnamic Acid 50 ppm",85%
same,amount of growth (normalized) to control,"[1]; pH 3.0, LAE 0 ppm, Cinnamic Acid 75 ppm",45%
same,amount of growth (normalized) to control,"[1]; pH 3.0, LAE 0 ppm, Cinnamic Acid 100 ppm",36%
same,amount of growth (normalized) to control,"[1]; pH 3.5, LAE 0 ppm, Cinnamic Acid 10 ppm",97%
same,amount of growth (normalized) to control,"[1]; pH 3.5, LAE 0 ppm, Cinnamic Acid 20 ppm",92%
same,amount of growth (normalized) to control,"[1]; pH 3.5, LAE 0 ppm, Cinnamic Acid 50 ppm",76%
same,amount of growth (normalized) to control,"[1]; pH 3.5, LAE 0 ppm, Cinnamic Acid 75 ppm",57%
same,amount of growth (normalized) to control,"[1]; pH 3.5, LAE 0 ppm, Cinnamic Acid 100 ppm",48%
same,amount of growth (normalized) to control,"[1]; pH 4.0, LAE 0 ppm, Cinnamic Acid 10 ppm",103%
same,amount of growth (normalized) to control,"[1]; pH 4.0, LAE 0 ppm, Cinnamic Acid 20 ppm",94%
same,amount of growth (normalized) to control,"[1]; pH 4.0, LAE 0 ppm, Cinnamic Acid 50 ppm",78%
same,amount of growth (normalized) to control,"[1]; pH 4.0, LAE 0 ppm, Cinnamic Acid 75 ppm",74%
same,amount of growth (normalized) to control,"[1]; pH 4.0, LAE 0 ppm, Cinnamic Acid 100 ppm",56%
same,QCA* (quantity of cinnamic acid alone required for the end point),[1]; [6],QCA* 300
same,cinnamic acid in the form of the un-dissociated acid,[5]; beverage pH 4.5,at least 45%
same,cinnamic acid in the form of the un-dissociated acid,[5]; pH 5.5,≤ 7.6%
